Laboratory results as given in patent US6835382B2, “Ii peptide therapeutics to enhance antigen presentation” (University of Massachusetts, priority 1996, dated 2004).
Positions of bridges follow the written chain, without caps; N, C: chain ends. Non-standard residues stand in square brackets, D forms with d. No end group written: not given here. hArg = N=C(N)NCCCC[C@H](N)C(=O)O; Cit = NC(=O)NCCC[C@H](N)C(=O)O

What was measured:
Type in all cases: cell-based
[1] = target: T1, murine E^d MHC class II allele (Mus musculus, UniProt P01904+P01915); test: AE101 series peptide prepulse assay, E^d allele; conditions: for T cell response relative to baseline with PBS-pretreated APC (NONE = 1.0), E^d: Table 35, AE101 series peptide prepulse 64 μM, antigenic peptide 0.3 μM, supernatant dilution 1:4
T1 sequence (P01904 26-255): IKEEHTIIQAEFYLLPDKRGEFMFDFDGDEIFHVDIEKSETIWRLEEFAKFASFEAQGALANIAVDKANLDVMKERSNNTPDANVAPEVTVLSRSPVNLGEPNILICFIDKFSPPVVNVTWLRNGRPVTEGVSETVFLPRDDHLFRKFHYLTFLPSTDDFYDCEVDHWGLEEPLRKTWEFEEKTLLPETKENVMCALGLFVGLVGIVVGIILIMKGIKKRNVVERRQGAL
T1 sequence (P01915 27-264 limits assumed): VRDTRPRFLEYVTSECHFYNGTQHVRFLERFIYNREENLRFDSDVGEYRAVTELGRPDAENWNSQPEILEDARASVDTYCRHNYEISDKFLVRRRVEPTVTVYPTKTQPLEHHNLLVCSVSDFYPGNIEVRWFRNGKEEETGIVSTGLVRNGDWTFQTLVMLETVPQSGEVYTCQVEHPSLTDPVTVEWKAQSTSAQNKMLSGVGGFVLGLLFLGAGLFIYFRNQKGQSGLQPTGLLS
Protocol: (§1) Table 35: Activities of multiple substitution analogs of AE235, targeting the E^k and E^d allele, in an AE101 series peptide prepulse assay. In this assay the concentration of AE101 series peptides used during the prepulse was 64 μM. The concentrations of antigenic peptides were 0.3 μM for Ed and 0.4 μM for E^k. The supernatant dilutions taken into the HT-2 cell assay was 1:4 for E and 1:2 for E^k. The AE381 peptide is a head-to-tail cyclization: the amino terminal amino group is coupled through an amide linkage to the carboxyl terminal group. The AE 382 peptide is a side-to-tail cyclization: the epsilon amino group of Lys^4 is coupled through an amide linkage to the carboxyl terminal group.
(§2) AE101 series peptide prepulse assays were carried out in the E^d and E^k systems as described for simultaneous competition assays with the following modifications. Fixed APC were first incubated for 6 h at 1×10^6DMEM-5% FCS with 64 μM of each AE101 series peptide or with PBS. The APC were then washed four times with ten volumes of DMEM-5% FCS, and were cocultured with T hybridoma cells and the indicated submaximal doses of antigenic peptides used in the simultaneous competition assays. The baseline T cell response was measured by culturing T hybridoma cells with antigenic peptide and PBS-pretreated APC.

[2] = target: T1, murine E^d MHC class II allele; test: simultaneous assay, E^d allele (A20 APC, G28.C9 T hybridoma, HEL106-116; HT-2 [3H]TdR readout); design: The A20 and CH27 B cell lymphoma lines express H-2^d and H-2^k alleles, respectively; endogenous in cells; host or cells: A20 B cell lymphoma (mitomycin C-treated or paraformaldehyde-fixed)
Summary of the method: (§3)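 Antigenic peptide, mitomycin C-treated APC, effector compound and allele-restricted T hybridoma cultured together for 24 h. Supernatant then transferred to interleukin-dependent HT-2 cells. T cell activation quantified as [3H]TdR uptake by HT-2 cells.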

[3] = test system: murine E^k MHC class II allele; test: simultaneous assay, E^k allele (CH27 APC, TPc9.1 T hybridoma, THMCC82-103 or PGCC81-104)
Summary of the method: as §3

[4] = test system: murine E^k MHC class II allele; test: AE101 series peptide prepulse assay, E^k allele; conditions: Table 35; AE101 series peptide prepulse 64 μM; antigenic peptide 0.4 μM; supernatant dilution 1:2
Protocol: as §1, §2

[5] = Table 18, AE peptide 64 μM, supernatant 1:4
[6] = Table 16, AE peptide 4 μM, supernatant 1:8
[7] = Table 15, AE peptide 16 μM, supernatant 1:4

For “cyclic LRMKLPK (bridge (positions not given here); also: cyclic, ring type not given here) [AE381, “head-to-tail” cyclization from the amino-terminus to the carboxyl-terminus of AE114]”, the “T cell response relative to baseline with PBS-pretreated APC (NONE = 1.0), E^d” value (“T cell response relative to baseline … E^d” for short) [1] was 1.0, the “activity in the AE101 series peptide prepulse assay, in words” value ([1]; text on Table 35, AE peptide prepulse 64 μM, E^d and E^k systems) was “potent suppressive activity” and the “Times Baseline Response, E^d” value [2, 5] was 2.1. The “activity in simultaneous assay on E^d and E^k, in words” value ([2]; Tables 12 and 18) was “weak”, the “Times Baseline Response, E^k” value [3, 5] was 0.56 and the “T cell response relative to baseline with PBS-pretreated APC (NONE = 1.0), E^k” value (shortened to “T cell response relative to baseline … E^k”) [4] was 0.3.
For Ac-LR HArg MYPK-NH2 [AE365], the “Times Baseline Response, E^d” value [2, 6] was 6.1 and the “Times Baseline Response, E^k” value [3, 6] was 20.1.
Ac-LR HArg KYP Cit-NH2 [AE366] was tested, and the “T cell response relative to baseline … E^d” value [1] was 7.5, the “Times Baseline Response, E^d” value [2, 6] was 7.3 and the “Times Baseline Response, E^k” value [3, 6] was 49.4. For the same substance, the “T cell response relative to baseline … E^k” value [4] was 3.5.
In the case of Ac-LRMKLPK (lactam 4-C) [AE382], the “T cell response relative to baseline … E^d” value [1] is reported as 1.7, the “Times Baseline Response, E^d” value [2, 5] is reported as 1.9 and the “activity in simultaneous assay on E^d, in words” value ([2]; text on Table 18) is reported as “relatively inactive”. For the same substance, the “Times Baseline Response, E^k” value [3, 5] was 18.1, the “activity in simultaneous assay on E^k, in words” value ([3]; Tables 2 and 18) was “moderately active” and the “T cell response relative to baseline … E^k” value [4] was 3.2.
For Ac-LRLKYPN-NH2 [AE368], the “Times Baseline Response, E^d” value [2, 6] was 9.4 and the “Times Baseline Response, E^k” value [3, 6] was 11.2.
In the case of Ac-LRMKYP[Cit]-NH2 [AE364], the “Times Baseline Response, E^d” value [2, 6] is reported as 14.0 and the “Times Baseline Response, E^k” value [3, 6] is reported as 16.6.
For Ac-L[hArg]LKYPK-NH2 [AE361], the “Times Baseline Response, E^d” value [2, 6] was 8.2 and the “Times Baseline Response, E^k” value [3, 6] was 4.6.
Ac-LKMKYPK-NH2 [AE362] was tested, and the “Times Baseline Response, E^d” value [2, 6] was 1.2 and the “Times Baseline Response, E^k” value [3, 6] was 1.3.
With Ac-LK HArg KYPK-NH2 [AE363] the “Times Baseline Response, E^d” value [2, 6] was 1.6 and the “Times Baseline Response, E^k” value [3, 6] was 1.7.
For Ac-A[Cit]NKNPK-NH2 [AE351], the “Times Baseline Response, E^d” value [2, 7] was 0.8 and the “Times Baseline Response, E^k” value [3, 7] was 1.6.
Ac-L[hArg]MKYPK-NH2 [AE360] was tested, and the “Times Baseline Response, E^d” value [2, 6] was 5.8 and the “Times Baseline Response, E^k” value [3, 6] was 2.5.
In the case of Ac-FK HArg MYP Cit-NH2 [AE371], the “Times Baseline Response, E^d” value [2, 6] is reported as 1.6 and the “Times Baseline Response, E^k” value [3, 6] is reported as 1.5.
In the case of Ac-LRMKYPN-NH2 [AE370], the “Times Baseline Response, E^d” value [2, 6] is reported as 8.7 and the “Times Baseline Response, E^k” value [3, 6] is reported as 7.5.
With Ac-LRMKNPF-NH2 [AE350] the “Times Baseline Response, E^d” value [2, 7] was 28.6 and the “Times Baseline Response, E^k” value [3, 7] was 24.2.
In the case of Ac-LR Orn K HArg PK-NH2 [AE340], the “Times Baseline Response, E^d” value [2, 7] is reported as 46.6 and the “Times Baseline Response, E^k” value [3, 7] is reported as 39.5.
With Ac-LRMMYP[Cit]-NH2 [AE367] the “Times Baseline Response, E^d” value [2, 6] was 1.0 and the “Times Baseline Response, E^k” value [3, 6] was 6.6.
